Molecular target: T1, recombinant human glucagon receptor (Homo sapiens, UniProt P47871)
T1 construct: expressed in transfected cells; host or cells: CHO (Chinese hamster ovary) cells
Experiment: Inhibition of glucagon-stimulated intracellular cAMP assay
Type: cell-based
Settings: CHO cells expressing recombinant human glucagon receptor, stimulated with 300 pM glucagon, LANCE cAMP
Experimental: Inhibition of Glucagon-Stimulated Intracellular cAMP Assay
Chinese hamster ovary (CHO) cells expressing the recombinant human glucagon receptor were harvested with the aid of non-enzymatic cell dissociation solution (GIBCO 13151-014). The cells were then pelleted and suspended in the stimulation buffer (1×HBSS, 5 mM Hepes, 0.1% BSA, pH7.4 in presence of complete protease inhibitor and phosphodiesterase inhibitor). The adenylate cyclase assay was conducted following the LANCE cAMP Kit (Perkin Elmer, AD0262) instructions. Briefly, cells were preincubated with anti-cAMP antibody in the stimulation buffer with a final concentration of 3% DMSO for 30 minutes and then stimulated with 300 pM glucagon for 45 minutes. The reaction was stopped by incubating with the detection buffer containing Europium chelate of the Eu-SA/Biotin-cAMP tracer for 20 hours. The fluorescence intensity emitted from the assay was measured at 665 nm using PheraStar instruments. […] Standard cAMP concentrations were conducted concurrently for conversion of fluorescence signal to cAMP level. Data was analyzed using GraphPad Prism. IC50 values were calculated using non-linear regression analysis assuming single site competition. […] Some of the compounds of the invention shown in the examples measured less than about 5 μM in this assay; other examples measured less than about 500 nM; others less than about 100 nM. […]

T1 sequence (P47871 26-477): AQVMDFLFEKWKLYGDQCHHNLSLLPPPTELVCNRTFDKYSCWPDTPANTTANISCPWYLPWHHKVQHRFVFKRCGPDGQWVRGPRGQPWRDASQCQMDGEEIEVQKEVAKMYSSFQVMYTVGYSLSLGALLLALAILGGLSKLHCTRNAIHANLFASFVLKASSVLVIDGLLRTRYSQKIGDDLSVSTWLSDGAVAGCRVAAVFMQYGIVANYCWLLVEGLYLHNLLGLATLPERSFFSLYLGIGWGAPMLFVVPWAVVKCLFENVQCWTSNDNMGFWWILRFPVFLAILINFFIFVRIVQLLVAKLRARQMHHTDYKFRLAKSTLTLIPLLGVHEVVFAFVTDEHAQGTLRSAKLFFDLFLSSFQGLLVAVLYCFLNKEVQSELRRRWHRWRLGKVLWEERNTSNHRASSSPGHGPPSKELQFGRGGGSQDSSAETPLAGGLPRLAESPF

IC50	SMILES
57 nM	CC(C)(C)C1CCC2(CC1)N=C(c1ccc(F)cc1)C(=O)N2[C@@H](c1ccc(C(=O)NCCC(=O)O)cc1)C1CC1 (some centres unmarked) [Example 1.212]
452 nM	CCC[C@H](c1ccc(C(=O)NCc2nn[nH]n2)cc1)N1C(=O)C(c2cccc(Cl)c2)=NC12CCC(C(C)(C)C)CC2 (some centres unmarked) [Example 1.156]
